According to patent US20030005484A1, “Microbiocidal and pesticidal aromatic aldehydes” (ProGuard, Inc., priority 1994, published 2003):
Values joined by “and” are separate entries in the source; they are usually repeats but may differ in a detail not shown here. Equal entries are not always repeated.

Experiments:
[1] = test system: phylloxera Biotype A; assay: planter / field box vines, leaf spray, phylloxera population on roots; assay type: in vivo, Daktulosphaira vitifoliae; settings: Chardonnay (2 treatments), two weeks
[2] = test system: grape phylloxera eggs; assay: whole plant or invertebrate; settings: for eggs that did not hatch completely (IH) / nymphs that died in the shell (DIS): 7 days
Method: Mixed age groups of 60 grape phylloxera eggs were established on filter paper (Whatman #1, 5.5 cm circles) in 50×9 mm sealed plastic petri dishes treated with 100 μl of solution. A selected concentration of a test formulation of 400 μl was added to the filter disk and the dish closed with the petri dish cover and placed in a plastic container box. After 6 hours, the box was placed in an environmental chamber at 24° C. in the dark. The eggs were placed in groups of 10. After one week, the percentage of hatch is determined. In an initial test, doses from 0.1 to 25,000 ppm cinnamic aldehyde in 6% NaHCO3 and 2% Tween 80 were evaluated with a single group of eggs at each dosage. Three replicates of the experiment were performed. […] LD50 and LD95 were determined by probit analysis.
Grape phylloxera eggs were treated with cinnamaldehyde (CNMA) in a 6% NaHCO3, 2% Tween-80 formulation in a laboratory bioassay. Mortality of the eggs was indicated by failure of the egg shell to split. […] Leaves of one-year-old greenhouse Vitis vinifera cultivar Merlot vines heavily infested with grape phylloxera were sprayed to run-off with a CNMA treatment using the same formulation. […] Roots taken from plants 1, 2 and 5 weeks after CNMA or other treatments were placed in Petri dish bioassays and infested with untreated phylloxera eggs.
Eggs of various age classes were placed on Whatman #1 filter paper moistened with enough treatment solution to form a meniscus about halfway up the sides of the eggs. The pieces of filter paper with eggs were maintained in sealed plastic Petri dishes at […] until they were 7 days old and then hatched individuals were counted. Hatch was considered successful if the […]

[3] = test system: phylloxera-biotype A; assay: greenhouse Merlot vines infested with phylloxera, leaf spray, disease rating of roots; assay type: in vivo, Daktulosphaira vitifoliae
Source text: For greenhouse tests, one year old potted V. vinifera cultivar merlot plants were used that had been obtained from Foundation Plant Material Service, University of California, Davis. The plants were potted in 10 cm diameter pots and were infested with phylloxera 5 weeks prior to treatment. At the time of spraying with a treatment solution, plant pots were placed in a plastic bag so that chemical runoff from the leaf sprays would not drip into the soil. The plants were sprayed to runoff with a household 1 liter-capacity plastic spray bottle. Plants were allowed to air dry outside and then replaced in the greenhouse. At intervals thereafter, the roots were separated from the potting mix and total phylloxera population estimated.

[4] = test system: Root Knot Nematode; assay: vineyard grape vines, nematode infestation: root knot; assay type: in vivo
Method: The subject formulations were tested for ability to reduce grape vine infestation by root knot, ring, stubby root, and roll lesion nematodes. Grape vines (Harmony rootstock) in a vinyard were treated with 1000 ppm or 3000 ppm cinnamaldehyde in 2% Tween 80, the commercial anti-nematode agent Nemacur, or a formulation blank. The extent of nematode infestation was determined at the time of treatment and at 30 and 60 days post-treatment.

[5] = test system: powdery mildew; assay: powdery mildew on Chardonnay grapes; assay type: in vivo
Method: The effect of 0.3% and 0.6% cinnamic aldehyde on pacific mites on grapevine leaves was examined cinnamic aldehyde was diluted to 0.3% and 0.6% in water. Each formulation was sprayed onto a 1 acre block of Chardonnay wine grapes with a tractor-drawn 500 gal. hydraulic sprayer at 150 psi at a rate of 150 gal./acre. As a control, a 10-acre block of Chardonnay wine grapes was treated the same day as the test formulations with the conventional treatment (Omite) per label directions. The number of mites was counted the day prior to spraying and 4 days after spraying. […] In fact, both concentrations reduced the number of mites to a larger extent than the positive control, conventional treatment, Omite. The 0.6% rate nearly eliminated live mites on grapevines. […] The 0.6% was slightly beter than the 0.3 % cinnamic aldehyde with respect to powdery mildew control.
(§1) The effect of 0.4% cinnamic aldehyde on powdery mildew and pacific mites on grapes was examined. Cinnamic aldehyde was diluted to 0.4% in water and sprayed onto a 1.8 acre test plot of Chardonnay grapevines with a tractor drawn, PTO powered sprayer, spraying at approximately 100 psi at a rate of 150 gal./acre. A 3 acre untreated plot served as a negative control. Additional controls included treatment of a 3.8 acre plot with stylet oil and a plot treated with a mix of Rubigan, Omite, and stylet oil, which cost appriximately $60.00/acre. Spray cards were placed randomly through the test block. Ten fruit clusters, which were generally completely covered with powdery mildew, in each of the four fields were flagged. […] Therefore, cinnamic aldehyde was effective at controlling both powdery mildew and pacific mites on grapes.

[6] = test system: pacific mites; assay: pacific mites on Chardonnay grapes, 0.4% spray; assay type: in vivo
Method: as §1

[7] = 10 ppm in 6% NaHCO3, 2% Tween 80
[8] = 100 ppm in 6% NaHCO3, 2% Tween 80
[9] = 1000 ppm in 2% Tween 80, 30 days post-treatment
[10] = 1000 ppm in 2% Tween 80, 60 days post-treatment
[11] = 1000 ppm in 2% Tween 80, day 0 (time of treatment)
[12] = 3000 ppm in 2% Tween 80, 30 days post-treatment
[13] = 3000 ppm in 2% Tween 80, day 0 (time of treatment)
[14] = CNMA 0.4% in water, 150 gal./acre, controls stylet oil, chemical mix
[15] = baseline, CNMA 0.4% plot, stylet oil plot, chemical mix plot

O=C/C=C/c1ccccc1 [cinnamic aldehyde]
Number of phylloxera per root piece ([1]; 1 K CNMA): 637
Number of phylloxera per root piece ([1]; 10 K CNMA): 102
7 day EC50, egg mortality (failure of the egg shell to split) ([2]; 6% NaHCO3, 2% Tween-80 formulation): 115 ppm
eggs that did not hatch completely (IH) [2, 7]: 100%
nymphs that died in the shell (DIS) [2, 7]: none died in the shell
eggs that did not hatch completely (IH) [2, 8]: 12%
nymphs that died in the shell (DIS) [2, 8]: 88%
nymphs that died in the shell (DIS) ([2]; 100 ppm in 6% NaHCO3, 2% Tween 80 plus 0.86 ml of 10 brix saponin solution): 93%
nymphs that died in the shell (DIS) ([2]; 5000 ppm aldehyde in 6% NaHCO3, 2% Tween 80): all nymphs died in the shell
Approximate Percent Mortality, egg test ([2]; CNMA 100 ppm, Days of Treatment 1): 8%
Approximate Percent Mortality, egg test ([2]; CNMA 100 ppm, Days of Treatment 2): 0%
Approximate Percent Mortality, egg test ([2]; CNMA 100 ppm, Days of Treatment 3): 0%
Approximate Percent Mortality, egg test ([2]; CNMA 100 ppm, Days of Treatment 4): 6%
Approximate Percent Mortality, egg test ([2]; CNMA 100 ppm, Days of Treatment 5): 25%
Approximate Percent Mortality, egg test ([2]; CNMA 180 ppm, Days of Treatment 1): 100%
Approximate Percent Mortality, egg test ([2]; CNMA 180 ppm, Days of Treatment 2): 0%
Approximate Percent Mortality, egg test ([2]; CNMA 180 ppm, Days of Treatment 3): 0%
Approximate Percent Mortality, egg test ([2]; CNMA 180 ppm, Days of Treatment 4): 47%
Approximate Percent Mortality, egg test ([2]; CNMA 180 ppm, Days of Treatment 5): 72%
Approximate Percent Mortality, egg test ([2]; CNMA 320 ppm, Days of Treatment 1): 100%
Approximate Percent Mortality, egg test ([2]; CNMA 320 ppm, Days of Treatment 2): 37%
Approximate Percent Mortality, egg test ([2]; CNMA 320 ppm, Days of Treatment 3): 28%
Approximate Percent Mortality, egg test ([2]; CNMA 320 ppm, Days of Treatment 4): 85%
Approximate Percent Mortality, egg test ([2]; CNMA 320 ppm, Days of Treatment 5): 100%
approximate egg hatch LD 50 ([2]; egg tests with CNMA analogs): 320 ppm
Average disease rating (0-4) ([3]; CNMA 10,000 ppm in 6% NaHCO3 and 2% Tween-80, leaves to run-off, week 1 (7 day evaluation)): 0^2(3)^3 and 0
Average disease rating (0-4) ([3]; Experiment 2, 2500 ppm CNMA leaf treatment, 1 day post treatment): 4 (3)
Average disease rating (0-4) ([3]; Experiment 2, 2500 ppm CNMA leaf treatment, 2 days post treatment): 0.3(3)
Average disease rating (0-4) ([3]; Experiment 2, 2500 ppm CNMA leaf treatment, 7 days post treatment): 0.3(3)
insects on roots after leaf spray ([3]; one-year-old greenhouse Merlot vines sprayed to run-off, after two weeks): disappeared
Root Knot Nematode, nematodes per 250 cc soil [4, 9]: 872 per 250 cc soil
Root Knot, nematodes per gram root [4, 9]: 55.2 per gram root
Root Knot Nematode, nematodes per 250 cc soil [4, 10]: 204.5 per 250 cc soil
Root Knot, nematodes per gram root [4, 10]: 11.8 per gram root
Root Knot Nematode, nematodes per 250 cc soil [4, 11]: 498.8 per 250 cc soil
Root Knot, nematodes per gram root [4, 11]: 301.3 per gram root
Root Knot Nematode, nematodes per 250 cc soil [4, 12]: 700 per 250 cc soil
Root Knot, nematodes per gram root [4, 12]: 125.6 per gram root
Root Knot Nematode, nematodes per 250 cc soil ([4]; 3000 ppm in 2% Tween 80, 60 days post-treatment): 269.8 per 250 cc soil
Root Knot Nematode, nematodes per 250 cc soil [4, 13]: 379.8 per 250 cc soil
Root Knot, nematodes per gram root [4, 13]: 24.4 per gram root
% INHIBITION (PM) [5, 14]: 88%
PM POST-SPRAY [5, 14]: 10
PM PRE-SPRAY [5, 15]: 84
incidence of powdery mildew (not quantitated) ([5]; both treatments, 0.3% and 0.6% in water, Chardonnay): markedly reduced
% INHIBITION (MITES) [6, 14]: 96%
MITES POST-SPRAY [6, 14]: 1.6
MITES PRE-SPRAY [6, 15]: 36
